Numbered stars: 1 amine (or outer) side, 2 acyl side, 3 side chain; on linkers, the order of the positions; unused ones are H or OH. Bridge positions count the residues as written; N and C are the ends. Peptide text beside a SMILES is read from it. * marks the point of attachment. C20 diacid = O=C(O)CCCCCCCCCCCCCCCCCCC(=O)*; γGlu = O=C(O)[C@H](CCC(=O)[*:2])N[*:1]
Assays:
[1] = biological target: T1, human amylin 3(a) receptor (human calcitonin receptor + RAMP-3) in BHK570 cells (Homo sapiens, UniProt O60896+P30988); test: ASSAY (II)a functional assay, human amylin receptor (CRE luciferase); format: cell-based; details: for EC50: human amylin receptor functional potency, assay (II), read-out: hAmylin-R funct. EC50
T1 construct: expressed in transfected cells
Summary of the method: (§1)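 Readout is luminescence from a cAMP-responsive CRE-luc reporter, developed with LucLite for 30 min at room temperature. Cells were treated for 3 h at 37 °C in 10% FBS/DMEM buffered with 10 mM Hepes (pH 7.4).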

[2] = biological target: T2, human calcitonin receptor (Homo sapiens, UniProt P30988); test: ASSAY (VII) binding to the human calcitonin receptor (SPA, 125I-Calcitonin); details: read-out: hCTR bind IC50;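 further: cell membranes (35 ng/µL) combined with SPA beads in 40 µL of pH 7.4 Hepes buffer, 384-well format, signal counted on a TopCounter instrument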
T2 construct: expressed in transfected cells
T2 sequence (P30988 25-474): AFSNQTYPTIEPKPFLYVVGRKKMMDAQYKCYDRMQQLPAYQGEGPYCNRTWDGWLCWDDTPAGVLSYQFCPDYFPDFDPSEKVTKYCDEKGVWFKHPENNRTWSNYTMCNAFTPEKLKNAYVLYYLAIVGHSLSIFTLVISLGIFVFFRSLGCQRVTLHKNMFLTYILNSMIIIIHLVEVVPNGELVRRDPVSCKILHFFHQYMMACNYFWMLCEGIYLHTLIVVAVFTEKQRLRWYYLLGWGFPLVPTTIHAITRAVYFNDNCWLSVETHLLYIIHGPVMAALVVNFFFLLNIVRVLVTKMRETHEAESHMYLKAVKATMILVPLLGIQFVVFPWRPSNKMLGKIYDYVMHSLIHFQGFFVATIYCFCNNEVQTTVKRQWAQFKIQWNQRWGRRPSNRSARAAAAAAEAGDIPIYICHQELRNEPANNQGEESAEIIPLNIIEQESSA

[3] = biological target: T3, human calcitonin (a) receptor in BHK570 cells (Homo sapiens, UniProt P30988); test: ASSAY (II)a functional assay, human calcitonin receptor (CRE luciferase); format: cell-based; details: read-out: hCTR funct. EC50
T3 construct: expressed in transfected cells
T3 sequence (P30988 25-474): T2 sequence (P30988 25-474)
Summary of the method: as §1

[4] = biological target: T4, human amylin receptor (membranes from Amylin 3(a)/CRE-luc cells) (Homo sapiens, UniProt O60896+P30988); test: ASSAY (V) binding to the human amylin receptor (SPA, 125I-rat amylin); details: for IC50: Table 4, read-out: hAmylin-R bind IC50;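 on all read-outs here: competition binding of cell membranes (35 ng/µL) mixed with SPA beads in 384-well plates at 40 µL total volume, read by scintillation counting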
T4 construct: expressed in transfected cells
T4 sequence (P30988 25-474): T2 sequence (P30988 25-474)
T4 sequence (O60896 24-148 partner): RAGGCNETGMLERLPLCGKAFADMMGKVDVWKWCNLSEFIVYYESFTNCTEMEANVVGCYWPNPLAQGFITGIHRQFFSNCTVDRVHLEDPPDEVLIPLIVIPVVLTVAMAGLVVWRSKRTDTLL

[5] = hCTR funct. EC50 / hAmylin-R funct. EC50
[6] = hCTR funct. EC50 divided by hAmylin-R funct. EC50
[7] = hCTR funct. EC50 over hAmylin-R funct. EC50
[8] = human functional selectivity: hCTR funct. EC50 / hAmylin-R funct. EC50
[9] = Table 5, selectivity, hCTR bind IC50 / hAmylin-R bind IC50
[10] = Table 7, human binding selectivity, included for comparison
[11] = Table 5a, selectivity, hCTR bind IC50 / hAmylin-R bind IC50
[12] = Table 7a (preferred compounds), human binding selectivity, included for comparison
[13] = ratio of human calcitonin receptor binding IC50 to human amylin receptor binding IC50

Row | Compound | Ratio hCT/hAmylin funct. [1, 5] | Ratio hCT/hAmylin funct. [1, 6] | Ratio hCT/hAmylin funct. [1, 7] | EC50 [1] | Ratio hCT/hAmylin funct. [1, 8] | IC50 [2] | EC50 [3] | IC50 [4] | Ratio hCT/hAmylin binding [4, 9] | Ratio hCT/hAmylin binding [4, 10] | Ratio hCT/hAmylin binding [4, 11] | Ratio hCT/hAmylin binding ([4]; Table 5b, selectivity, hCTR bind IC50 / hAmylin-R bind IC50) | Ratio hCT/hAmylin binding ([4]; Table 5c, selectivity, hCTR bind IC50 / hAmylin-R bind IC50) | Ratio hCT/hAmylin binding [4, 12] | Ratio hCT/hAmylin binding [4, 13]
1 | CC[C@H](C)[C@H](NC(=O)[C@H](C)NC(=O)CNC(=O)[C@H](Cc1ccccc1)NC(=O)[C@H](CC(N)=O)NC(=O)[C@@H]1CCCN1C(=O)[C@H](CO)NC(=O)[C@H](CO)NC(=O)[C@H](Cc1c[nH]cn1)NC(=O)[C@H](CCCNC(=N)N)NC(=O)[C@H](CC(C)C)NC(=O)[C@H](Cc1ccccc1)NC(=O)[C@H](CCC(=O)O)NC(=O)[C@H](C)NC(=O)[C@H](CC(C)C)NC(=O)[C@H](CCCNC(=N)N)NC(=O)[C@H](CCC(N)=O)NC(=O)[C@@H](NC(=O)[C@H](C)NC(=O)[C@@H]1CSSC[C@H](NC(=O)[C@H](CCCCN)NC(=O)CC[C@H](NC(=O)CCCCCCCCCCCCCCCCCCC(=O)O)C(=O)O)C(=O)N[C@@H](CC(N)=O)C(=O)N[C@@H]([C@@H](C)O)C(=O)N[C@@H](C)C(=O)N[C@@H]([C@@H](C)O)C(=O)N1)[C@@H](C)O)C(=O)N1CCC[C@H]1C(=O)N[C@@H](CO)C(=O)N[C@@H](CO)C(=O)N[C@H](C(=O)N[C@@H](CC(N)=O)C(=O)N[C@H](C(=O)NCC(=O)N[C@@H](CO)C(=O)N[C@@H](CC(N)=O)C(=O)N[C@H](C(=O)N1CCC[C@H]1C(N)=O)[C@@H](C)O)C(C)C)[C@@H](C)O [Example 8] ({C20 diacid-γGlu}-KCNTATCATQRLAEFLRHSSPNFGAIPSSTNVGSNTP-NH2; disulfide 2-7) | 1.1 | 1.1 | 1.1 | 0.082 nM | 1.1 | 0.038 nM | 0.087 nM | 0.072 nM | 0.5 | 0.5 | – | – | – | – | –
2 | CC[C@H](C)[C@H](NC(=O)[C@H](C)NC(=O)CNC(=O)[C@H](Cc1ccccc1)NC(=O)[C@H](CC(N)=O)NC(=O)[C@@H]1CCCN1C(=O)[C@H](CO)NC(=O)[C@H](CO)NC(=O)[C@H](Cc1c[nH]cn1)NC(=O)[C@H](CCCNC(=N)N)NC(=O)[C@H](CC(C)C)NC(=O)[C@H](Cc1ccccc1)NC(=O)[C@H](CC(=O)O)NC(=O)[C@H](C)NC(=O)[C@H](CC(C)C)NC(=O)[C@H](CCCNC(=N)N)NC(=O)[C@H](CCC(N)=O)NC(=O)[C@@H](NC(=O)[C@H](C)NC(=O)[C@@H]1CSSC[C@H](NC(=O)[C@H](CCCCN)NC(=O)CC[C@H](NC(=O)CCCCCCCCCCCCCCCCCCC(=O)O)C(=O)O)C(=O)N[C@@H](CC(N)=O)C(=O)N[C@@H]([C@@H](C)O)C(=O)N[C@@H](C)C(=O)N[C@@H]([C@@H](C)O)C(=O)N1)[C@@H](C)O)C(=O)N1CCC[C@H]1C(=O)N[C@@H](CO)C(=O)N[C@@H](CO)C(=O)N[C@H](C(=O)N[C@@H](CC(N)=O)C(=O)N[C@H](C(=O)NCC(=O)N[C@@H](CO)C(=O)N[C@@H](CC(N)=O)C(=O)N[C@H](C(=O)N1CCC[C@H]1C(N)=O)[C@@H](C)O)C(C)C)[C@@H](C)O [Example 10] ({C20 diacid-γGlu}-KCNTATCATQRLADFLRHSSPNFGAIPSSTNVGSNTP-NH2; disulfide 2-7 (inferred)) | 1.0 | 1.0 | 1.0 | 0.072 nM | 1.0 | 0.099 nM | 0.07 nM | 0.082 nM | 1.2 | 1.2 | – | – | – | – | –
3 | CC[C@H](C)[C@H](NC(=O)[C@H](C)NC(=O)CNC(=O)[C@H](Cc1ccccc1)NC(=O)[C@H](CC(N)=O)NC(=O)[C@@H]1CCCN1C(=O)[C@H](CO)NC(=O)[C@H](CO)NC(=O)[C@H](Cc1c[nH]cn1)NC(=O)[C@H](CCCNC(=N)N)NC(=O)[C@H](CC(C)C)NC(=O)[C@H](Cc1ccccc1)NC(=O)[C@H](CCC(=O)O)NC(=O)[C@H](C)NC(=O)[C@H](CC(C)C)NC(=O)[C@H](CCCNC(=N)N)NC(=O)[C@H](CCC(N)=O)NC(=O)[C@@H](NC(=O)[C@H](C)NC(=O)[C@@H]1CSSC[C@H](NC(=O)[C@H](CCCCN)NC(=O)CC[C@H](NC(=O)CCCCCCCCCCCCCCCCCCC(=O)O)C(=O)O)C(=O)N[C@@H](CC(N)=O)C(=O)N[C@@H]([C@@H](C)O)C(=O)N[C@@H](C)C(=O)N[C@@H]([C@@H](C)O)C(=O)N1)[C@@H](C)O)C(=O)N1CCC[C@H]1C(=O)N[C@@H](CO)C(=O)N[C@@H](CO)C(=O)N[C@H](C(=O)N[C@@H](CC(N)=O)C(=O)N[C@H](C(=O)NCC(=O)N[C@@H](CO)C(=O)N[C@@H](CC(=O)O)C(=O)N[C@H](C(=O)N1CCC[C@H]1C(N)=O)[C@@H](C)O)C(C)C)[C@@H](C)O [Example 11] ({C20 diacid-γGlu}-KCNTATCATQRLAEFLRHSSPNFGAIPSSTNVGSDTP-NH2; disulfide 2-7 (inferred)) | 0.9 | 0.9 | 0.9 | 0.12 nM | 0.9 | 0.101 nM | 0.112 nM | 0.105 nM | 1.0 | 1.0 | – | – | – | – | –
4 | CC[C@H](C)[C@H](NC(=O)[C@H](C)NC(=O)CNC(=O)[C@H](Cc1ccccc1)NC(=O)[C@H](CC(N)=O)NC(=O)[C@@H]1CCCN1C(=O)[C@H](CO)NC(=O)[C@H](CO)NC(=O)[C@H](Cc1c[nH]cn1)NC(=O)[C@H](CCCNC(=N)N)NC(=O)[C@H](CC(C)C)NC(=O)[C@H](Cc1ccccc1)NC(=O)[C@H](CCC(=O)O)NC(=O)[C@H](C)NC(=O)[C@H](CC(C)C)NC(=O)[C@H](CCCNC(=N)N)NC(=O)[C@H](CCC(N)=O)NC(=O)[C@@H](NC(=O)[C@H](C)NC(=O)[C@@H]1CSSC[C@H](NC(=O)[C@H](CCCCN)NC(=O)CC[C@H](NC(=O)CC[C@H](NC(=O)CCCCCCCCCCCCCCCCCCC(=O)O)C(=O)O)C(=O)O)C(=O)N[C@@H](CC(N)=O)C(=O)N[C@@H]([C@@H](C)O)C(=O)N[C@@H](C)C(=O)N[C@@H]([C@@H](C)O)C(=O)N1)[C@@H](C)O)C(=O)N1CCC[C@H]1C(=O)N[C@@H](CO)C(=O)N[C@@H](CO)C(=O)N[C@H](C(=O)N[C@@H](CC(N)=O)C(=O)N[C@H](C(=O)NCC(=O)N[C@@H](CO)C(=O)N[C@@H](CC(N)=O)C(=O)N[C@H](C(=O)N[C@@H](Cc1ccc(O)cc1)C(N)=O)[C@@H](C)O)C(C)C)[C@@H](C)O [Example 15] ({C20 diacid-γGlu-γGlu}-KCNTATCATQRLAEFLRHSSPNFGAIPSSTNVGSNTY-NH2; disulfide 2-7 (inferred)) | – | 8.9 | 8.9 | 0.386 nM | 8.9 | 15.5 nM | 3.43 nM | 0.597 nM | 26.0 | 26.0 | 26.0 | 26.0 | 26.0 | 26.0 | 26.0
5 | CC[C@H](C)[C@H](NC(=O)[C@H](C)NC(=O)CNC(=O)[C@H](Cc1ccccc1)NC(=O)[C@H](CC(N)=O)NC(=O)[C@@H]1CCCN1C(=O)[C@H](CO)NC(=O)[C@H](CO)NC(=O)[C@H](Cc1c[nH]cn1)NC(=O)[C@H](CCCNC(=N)N)NC(=O)[C@H](CC(C)C)NC(=O)[C@H](Cc1ccccc1)NC(=O)[C@H](CCC(=O)O)NC(=O)[C@H](C)NC(=O)[C@H](CC(C)C)NC(=O)[C@H](CCCNC(=N)N)NC(=O)[C@H](CCC(N)=O)NC(=O)[C@@H](NC(=O)[C@H](C)NC(=O)[C@@H]1CSSC[C@H](NC(=O)[C@H](CCCCN)NC(=O)CC[C@H](NC(=O)CCCCCCCCCCCCCCCCCCC(=O)O)C(=O)O)C(=O)N[C@@H](CC(N)=O)C(=O)N[C@@H]([C@@H](C)O)C(=O)N[C@@H](C)C(=O)N[C@@H]([C@@H](C)O)C(=O)N1)[C@@H](C)O)C(=O)N1CCC[C@H]1C(=O)N[C@@H](CO)C(=O)N[C@@H](CO)C(=O)N[C@H](C(=O)N[C@@H](CC(N)=O)C(=O)N[C@H](C(=O)NCC(=O)N[C@@H](Cc1c[nH]cn1)C(=O)N[C@@H](CC(N)=O)C(=O)N[C@H](C(=O)N[C@@H](Cc1ccc(O)cc1)C(N)=O)[C@@H](C)O)C(C)C)[C@@H](C)O [Example 17] ({C20 diacid-γGlu}-KCNTATCATQRLAEFLRHSSPNFGAIPSSTNVGHNTY-NH2; disulfide 2-7 (inferred)) | – | 8.8 | 8.8 | 0.268 nM | 8.8 | 10.9 nM | 2.35 nM | 0.878 nM | 12.5 | 12.5 | 12.5 | – | – | 12.5 | 12.5

From US9023789B2, “Amylin analogs and pharmaceutical compositions thereof” (Novo Nordisk A/S, priority 2012, dated 2015)
